Assays:
HEK-293 cells = assay: cDNA microarray analysis of cells expressing intracellular PGI2 (PGISwt vs inactive PGISC441A); format: cell-based, human; conditions: ratio of PGISwt to PGISC441A, 36 h
Protocol: HEK-293 cells (1.2×10^4 cells/cm^2) were transfected with expression vector for PGISwt or PGISC441A using LipofectAMINE (Invitrogen) and maintained in DMEM containing 10% FBS, 2 mM L-glutamine, 100 U/ml penicillin and […] streptomycin for 36 h. Poly(A+) mRNA (1.5 μg) was prepared from3×10^6 cells using Isogen (Nippon Gene) and Oligotex-dT30 super mRNA purification kit (Takara, Tokyo, Japan). Samples were analyzed by gene expression microarray (GEM) DNA tip containing 9,182 human cDNA clones (HUMAN UniGEM V Ver2.0, IncyteGenomics, Palo Alto, Calif.). Conversion of poly(A+) mRNA to cDNA with incorporation of Cy3- or Cy5-labeled deoxynucleotide-triphosphates (dNTPs), hybridization to arrays coated on glass, quality control and normalization were performed by IncyteGenomics. All data analyses were performed using an average fold change of two assays, and data were expressed as the ratio of PGISwt to PGISC441A.
In order to identify the downstream mediators of intracellular PGI2-PPARδ signaling pathway, a cDNA microarray analysis of human cells expressing intracellular PGI2 was performed. Based on precious studies of the inventors (Hatae et al., J. Biol. Chem. (2001) 276: 46260-7), a human embryonic kidney cell line (HEK-293) transfected with the expression vector for wild-type PGIS (PGISwt) was used to achieve endogenous expression of intracellular PGI2.

COX-2 gene = assay: RT-PCR analysis of COX-2 mRNA; format: cell-based, human; conditions: HUVEC, combination of TNF-α (1 ng/ml) and IL-1β (20 ng/ml), FIG. 5
Protocol: For analysis of IL-13, human vascular endothelial cells (1.2×10^4 cells/cm^2) were stimulated with cPGI (10 μM) for 12 h, and total RNA was prepared from stimulated cells with Isogen (Nippon Gene). For analysis of COX-2, human vascular endothelial cells (1.2×10^4 cells/cm^2) were pretreated with TNF-α (1 ng/ml) and IL-1b (20 ng/ml) for 1 h, and then treated with cPGI (0, 10 μM), anti-human IL-13 monoclonal antibody (0, 0.5 μg/ml) and control IgG (0, 0.5 μg/ml) for 12 h to prepare total RNA. The total RNA (0.5 μg) was used for analysis by SuperScript RT-PCR system (Invitrogen) according to the manufacturer's instructions. The oligonucleotide primers used were IL-13-s (5′-[…]-3′ (SEQ ID NO: 6); sense) and IL-13-as (5′-[…]-3′ (SEQ ID NO: 7); antisense) for human IL-13, β-actin-s (5′-[…]-3′ (SEQ ID NO: 8); sense) and β-actin-as (5′-[…]-3′ (SEQ ID NO: 9); antisense) for human β-actin, and COX-2-s (5′-[…]-3′ (SEQ ID NO: 10); sense) and COX-2-as (5′-[…]-3′ (SEQ ID NO: 11); antisense) for human COX-2. For each PCR amplification, 1 μl of cDNA was used in a 50 μl reaction. Reverse transcription-PCR (RT-PCR) for β-actin (25 cycles) was used as an internal control for mRNA abundance. For IL-13 and COX-2 genes, the number of cycles ranged from 25 to 45. […] Samples were normalized based on equivalent expression of β-actin.

[1] = test system: adhesion between human vascular endothelial cells and monocytic leukocyte U937 cells; assay: Adherence assay of U937 cells to endothelial monolayers; format: cell-based; conditions: HUVEC, 24 h
Protocol: HUVEC (2.5×10^4 cells/cm^2) were cultured in 12-well plates. After 24 h, confluent monolayers were used for adherence assays. Monolayers were preincubated in EGM-2 containing 2% FBS, 0 or 10 ng/ml TNF-α, 0 or 10 ng/ml IL-13 and 0 or 10 μM cPGI with or without anti-IL-13 monoclonal antibody (0.5 μg/ml) at 37° C. for 0 to 24 h. Human monocyte leukocyte U937 cells were cultured in RPMI 1640 (Gibco-Invitrogen) containing 10% FBS, 100 U/ml penicillin and […] streptomycin , labeled with 2.5 μM calcein-AM (Molecular Probes, Eugene, Oreg.) at room temperature for 45 min, washed and resuspended in serum-free EGM-2. The calcein-labeled U937 cells (8×10^4 cells/well) were added to pretreated endothelial cells and incubated with cPGI (0, 10 μM), recombinant IL-13 (0, 10 ng/ml) and anti-IL-13 monoclonal antibody (0, 0.5 μg/ml). U937 cells were allowed to adhere to pretreated endothelial cells for 30 min at 37° C. Adherence was assessed with a fluorescence image analyzer (FLA-2000; Fujifilm, Tokyo, Japan). Plates were scanned before and after washing for total and adherent cells, respectively, and relative adherence was calculated (fold of control).

[2] = test system: endogenous PGI2 production; assay: PGI2 assay (6-keto-PGF1α ELISA); format: cell-based, human; conditions: HUVEC, TNF-α 0, 0.1, 1 or 10 ng/ml, 24 h, FIG. 4A
Protocol: (§1) Human vascular endothelial cells (1.2×10^4 cells/cm^2) were cultured in EGM-2 containing 2% FBS and several concentrations of cPGI with or without TNF-α for 24 h. Incubation media were collected and stored at −80° C. before assay. Amounts of IL-13 were measured with human IL-13 ELISA system (Amersham Pharmacia Biotech, Buckinghamshire, UK) and amounts of PGI2 were measured as the amounts of 6-keto-PGI1α, a stable metabolite of PGI2, with 6-keto-PGI1α ELISA kit (Cayman Chemical Co., Ann Arbor, Mich.) according to the manufacturers' instructions.
siRNA duplexes with the following sense and antisense sequences were made: PGIS1, 5′-[…]-3′ (SEQ ID NO: 12; sense) and 5′-[…]-3′ (SEQ ID NO: 13; antisense); PGIS2, 5′-[…]-3′ (SEQ ID NO: 14; sense) and 5′-[…]-3′ (SEQ ID NO: 15; antisense); PGIS3, 5′-[…]-3′ (SEQ ID NO: 16; sense) and 5′-[…] (SEQ ID NO: 17; antisense); and PGIS4, 5′-[…]-3′ (SEQ ID NO:, 18; sense) and 5′-[…]-3′ (SEQ ID NO: 19; antisense). siRNAs were synthesized and annealed by Dharmacon Research Inc. (Lafayette, CO). […] Microsomal fractions of the cells were prepared and analyzed by immunoblotting with anti-PGIS P4 polyclonal antibody as described previously (Hatae et al., J. Biol. Chem. (2001) 276: 46260-7). […] The incubation media were collected, and amounts of 6-keto-PGI1α or IL-13 were measured with ELISA kit.

PPRE (PPARδ activation) = assay: PPREx3-luciferase reporter assay; format: cell-based, human; conditions: HUVEC treated with TNF-α 0-10 ng/ml, 24 h, FIG. 4B
Protocol: Primary cultured human umbilical vein endothelial cells (HUVEC) and human aortic endothelial cells (HAEC) were obtained from Kurabo Co. Ltd. (Tokyo, Japan) and were cultured in EGM-2 growth medium supplemented with 2% fetal bovine serum (FBS) and a mixture of growth factors according to the supplier's instructions. Total RNA from the cells in culture was prepared with Isogen (Nippon Gene, Tokyo, Japan). Human embryonic kidney HEK-293 cells were cultured in DMEM containing 10% FBS, 2 mM L-glutamine, 100 U/ml penicillin and […] streptomycin as described previously (Hatae et al., J. Biol. Chem. (2001) 276: 46260-7). […] HEK-293 cells were transfected with DNA using lipofectAMINE (Invitrogen, Carlsbad, Calif.) as described previously (Hatae et al., J. Biol. Chem. (2001) 276: 46260-7). Human vascular endothelial cells were transfected with TransIT LT-1 (PanVera Co., Madison, Wis.). Transfections were performed at a ratio of 1 μg of DNA to 3.0 μl of the reagents, and cells were incubated in serum-free EGM-2 at 37° C. for 5 h. Subsequently, cells were grown in fresh EGM-2 containing 2% FBS and a mixture of growth factors for 12 h before analysis. For reporter assay, human vascular endothelial cells (1.2×10^4 cells/cm^2) were cotransfected with 0.2 μg of the PPREx3-luciferase reporter vector and 0.1 μg of β-galactosidase expression vector by use of TransIT LT-1. After 17 h of transfection, cells were washed with PBS, incubated in EGM-2 containing 2% FBS and cPGI (0-100 μM) for 24 h at 37° C., and subjected to luciferase assay as described previously (Hatae et al., J. Biol. Chem. (2001) 276: 46260-7). The luciferase activity of the extract was normalized to β-galactosidase activity.

IL-13 = IL-13 ELISA of culture medium of human vascular endothelial cells; format: cell-based; conditions: HUVEC treated with TNF-α 0-10 ng/ml, 24 h, FIG. 4C
Protocol: as §1
(§2) siRNA duplexes with the following sense and antisense sequences were made: PGIS1, 5′-[…]-3′ (SEQ ID NO: 12; sense) and 5′-[…]-3′ (SEQ ID NO: 13; antisense); PGIS2, 5′-[…]-3′ (SEQ ID NO: 14; sense) and 5′-[…]-3′ (SEQ ID NO: 15; antisense); PGIS3, 5′-[…]-3′ (SEQ ID NO: 16; sense) and 5′-[…] (SEQ ID NO: 17; antisense); and PGIS4, 5′-[…]-3′ (SEQ ID NO:, 18; sense) and 5′-[…]-3′ (SEQ ID NO: 19; antisense). siRNAs were synthesized and annealed by Dharmacon Research Inc. (Lafayette, CO). Control non-silencing siRNA, a duplex of sense (5′-UUCUCCGAACGUGUCACGUdTdT-3′; SEQ ID NO: 20) and antisense (5′-ACGUGACACGUUCGGAGAAdTdT-3′; SEQ ID NO: 21) sequences, was purchase from Qiagen (Valencia, Calif.). The cells were initially transfected with 200 pmol per well of the annealed RNA mixture or the same amount of control siRNA using LipofectAMINE2000 (Invitrogen), and 12 h later secondly transfected with the same amount of siRNAs using HVJ-liposome transfection kit (GenomeONE; Ishihara Sangyo, Osaka, Japan) according to the manufacturers' instructions. The cells were retransfected with the siRNAs every 3 days using LipofectAMINE2000 and HVJ-liposome, and used for analyses 10 days after transfection. Microsomal fractions of the cells were prepared and analyzed by immunoblotting with anti-PGIS P4 polyclonal antibody as described previously (Hatae et al., J. Biol. Chem. (2001) 276: 46260-7). The cells treated with siRNAs for 10 days were cultured in fresh EGM-2 containing 2% FBS and TNF-α (0, 10 ng/ml). with or without cPGI (10 μM) for 24 h. The incubation media were collected, and amounts of 6-keto-PGI1α or IL-13 were measured with ELISA kit.

PGIS = assay: RNAi silencing of PGIS, immunoblotting with anti-PGIS antibody; format: cell-based, human; conditions: HUVEC, siRNA treatment for 10 days, FIG. 6A
Source text: as §2, with “The cells were retransfected with the siRNAs every 3 days using LipofectAMINE2000 and HVJ-liposome, and used for analyses 10 days after transfection.” left out, “The cells treated with siRNAs for 10 days were cultured in fresh EGM-2 containing 2% FBS and TNF-α (0, 10 ng/ml). with or without cPGI (10 μM) for 24 h.” left out

## CCCCC[C@H](O)/C=C/[C@@H]1[C@H]2C/C(=C/CCCC(=O)O)O[C@H]2C[C@H]1O [PGI2, prostacyclin]
HEK-293 cells
  Differential expression, IL-13 (NM_002188): +11.0
  Differential expression, Sjogren syndrome antigen (BF897247): +2.8
  Differential expression, aldehyde dehydrogenase 1 family, member A1 (AI050734): +2.5
  Differential expression, butyrophilin, subfamily 3, member A2 (AA482308): +2.7
  Differential expression, isopentenyl-diphosphate delta isomerase (BF698441): +2.9
  Differential expression, mal T-cell differentiation protein (NM_022439): +7.0 mal

## IL-1: Recombinant human IL-1β, proinflammatory cytokine
COX-2 gene
  expression of COX-2 mRNA: induced

## IL-13: recombinant human IL-13
[1]; TNF-α 10 ng/ml plus antibody 0.5 μg/ml, cPGI 10 μM or IL-13 10 ng/ml, FIG. 4D lanes 3-5
  TNF-α-induced monocytic leukocyte-endothelial cell adhesion: inhibited

## TNF-α
[2]
  endogenous PGI2 production: significantly induced
COX-2 gene
  expression of COX-2 mRNA: induced
PPRE (PPARδ activation)
  relative luciferase activity of reporter vector containing PPRE: increased
[1]; TNF-α 10 ng/ml alone, FIG. 4D lanes 1 and 2
  adhesion between U937 cells and endothelial cells: increase adhesion
IL-13
  production of IL-13: increased

## control siRNA: Control non-silencing siRNA duplex (SEQ ID NO: 20, 21) from Qiagen (chain 1 UUCUCCGAACGUGUCACGUNN; chain 2 ACGUGACACGUUCGGAGAANN; listed as RNA, chemistry not fully specified)
PGIS
  endogenous expression of PGIS (Western analysis): no effect

Reference: US20050080140A1, “Method for treating or preventing inflammatory disorders” (AnGes MG, Inc., priority 2003, published 2005)
